Tests used:
[1] = tested on: CDKB2;1 and CYCB1;1; assay: Expression of mitotic cell cycle genes CDKB2;1 and CYCB1;1; type: in vivo, Arabidopsis thaliana; conditions: 5 μM ACC
[2] = tested on: CDKA; assay: CDKA activity assay on protein extracted from proliferating third leaves; type: in vivo, Arabidopsis thaliana
Description: (§1) At 9 DAS, when the third leaf is fully proliferating, seedlings were transferred to plates containing control medium or medium supplemented with 25 mM mannitol (Sigma-Aldrich) or 5 μM ACC (Sigma-Aldrich) by gently lifting the nylon mesh with forceps. For the CDKA activity assay the transfer was done at 11 DAS; at this stage, the third leaf is still dividing and can be quickly harvested without the need for RNAlater solution (see below) that would inhibit CDKA activity. All transfers were performed 2-3 h into the day.
Total soluble protein was extracted from 50 leaves by adding extraction buffer (Van Leene et al., 2007) to ground samples, followed by two freeze-thaw steps and two centrifugation steps (20,817 g, 10 min, 4° C.), whereby the supernatant was collected each time. Equal amounts of total protein were incubated with p9^CKS1Hs-sepharose beads (De Veylder et al., 1997) and kinase assays were performed as described (De Veylder et al., 1997) with histone H1 as CDK substrate. To correct for the amount of CDKA protein purified by p9^CKS1Hs-sepharose beads, an aliquot of each sample was used for protein gel blot analysis with primary rabbit anti-PSTAIRE antibodies (Santa Cruz) (diluted 1:5000) and a secondary horseradish peroxidase-conjugated donkey anti-rabbit antibodies (GE-Healthcare) (diluted 1:10,000). Proteins were detected by chemiluminescence (Western Lightning Plus ECL, PerkinElmer Life Sciences). CDK activity and CDKA amount were quantified with ImageJ v1.41o. Control samples were arbitrarily set at 100%.

[3] = tested on: CYCB1;1:Dbox-GUS reporter line; assay: CYCB1;1:DBox-GUS staining of mitotic activity in leaf 3; type: in vivo, Arabidopsis thaliana; conditions: 48 h after transfer to 25 mM mannitol or 5 μM ACC
Description: Arabidopsis seedlings were germinated and grown on nylon meshes overlaying control medium until 9 days after stratification (DAS), when the third true leaf is fully proliferating (Skirycz et al., 2010), and subsequently transferred to control or mannitol-containing medium (FIGS. 1A to 10). Kinematic analysis was performed, whereby leaves were harvested daily throughout development of leaf 3 (9-20 DAS) and based on drawings of the abaxial epidermis cell number, cell area, number of guard cells and cell division and cell expansion rates were calculated (De Veylder et al., 2001). […] Leaf and plant morphology were not altered by mannitol (FIG. 2C). Cell expansion was also affected by stress and the reduced final leaf area was a combination of fewer and smaller cells (FIG. 2D). The stomatal index, which represents the number of stomata as a fraction of the total number of cells, was reduced as well (FIG. 2E). To learn more about the mechanisms underlying the rapid reduction of cell division upon stress onset, we harvested leaf samples daily after transfer. As a measure of cellular differentiation, the ploidy distribution was examined by flow cytometry. […] In stressed leaves, 4C nuclei started to accumulate approximately one day earlier than in controls at the expense of 2C nuclei (FIG. 3A). […]

[4] = tested on: Arabidopsis thaliana third true leaf; assay: Ploidy analysis of leaf 3 by flow cytometry (endoreduplication onset); type: in vivo; conditions: transfer at 9 DAS to 25 mM mannitol or 5 μM ACC
Description: Arabidopsis seedlings were germinated and grown on nylon meshes overlaying control medium until 9 days after stratification (DAS), when the third true leaf is fully proliferating (Skirycz et al., 2010), and subsequently transferred to control or mannitol-containing medium (FIGS. 1A to 10). Kinematic analysis was performed, whereby leaves were harvested daily throughout development of leaf 3 (9-20 DAS) and based on drawings of the abaxial epidermis cell number, cell area, number of guard cells and cell division and cell expansion rates were calculated (De Veylder et al., 2001). […] Leaf and plant morphology were not altered by mannitol (FIG. 2C). Cell expansion was also affected by stress and the reduced final leaf area was a combination of fewer and smaller cells (FIG. 2D). The stomatal index, which represents the number of stomata as a fraction of the total number of cells, was reduced as well (FIG. 2E). To learn more about the mechanisms underlying the rapid reduction of cell division upon stress onset, we harvested leaf samples daily after transfer. […]
For flow cytometry analysis, nuclei were extracted by chopping 4-32 leaves with a razor blade in 1 ml of 45 mM MgCl2, 30 mM sodium citrate, 20 mM 3-(N-morpholino)propanesulfonic acid, pH 7, and 1% Triton X-100 (Galbraith et al., 1983). […] The nuclei were analyzed with a CyFlow flow cytometer with the FloMax Software (Partec).

[5] = tested on: Arabidopsis thaliana third true leaf; assay: Growth (kinematic) analysis of the third leaf after transfer of seedlings to mannitol- or ACC-containing medium; type: in vivo
Description: Arabidopsis seedlings were germinated and grown on nylon meshes overlaying control medium until 9 days after stratification (DAS), when the third true leaf is fully proliferating (Skirycz et al., 2010), and subsequently transferred to control or mannitol-containing medium (FIGS. 1A to 10). Kinematic analysis was performed, whereby leaves were harvested daily throughout development of leaf 3 (9-20 DAS) and based on drawings of the abaxial epidermis cell number, cell area, number of guard cells and cell division and cell expansion rates were calculated (De Veylder et al., 2001). […] Leaf and plant morphology were not altered by mannitol (FIG. 2C). Cell expansion was also affected by stress and the reduced final leaf area was a combination of fewer and smaller cells (FIG. 2D). The stomatal index, which represents the number of stomata as a fraction of the total number of cells, was reduced as well (FIG. 2E). To learn more about the mechanisms underlying the rapid reduction of cell division upon stress onset, we harvested leaf samples daily after transfer. As a measure of cellular differentiation, the ploidy distribution was examined by flow cytometry. […] In stressed leaves, 4C nuclei started to accumulate approximately one day earlier than in controls at the expense of 2C nuclei (FIG. 3A). Analogously, the number of 8C nuclei increased sharply at 14 DAS in stressed leaves, but only at 15 DAS in control samples (FIG. 3A). Again, transfer itself had no effect on ploidy levels (not shown). […] This observation was further investigated with a CYCB1;1:Dbox-GUS reporter line. Staining for CYCB1;1:Dbox-GUS activity visualizes cells at the G2-to-M transition, reflecting mitotic activity (Colón-Carmona et al., 1999). The most apparent differences were observed 48 h after transfer. […] While the relative size of the cell proliferation zone was similar in mannitol-treated leaves, the remaining proliferating cells were found in a dispersed pattern throughout this zone. […] Within a few days after transfer, division rates adapted to the new conditions and compensation effects were observed.
Seedlings of Arabidopsis thaliana (L.) Heyhn. ecotype Columbia-0 (Col-0) were grown in vitro in half-strength Murashige and Skoog medium (Murashige and Skoog, 1962), supplemented with 1% sucrose under a 16-h day (110 μmol m^−2 s^−1) and 8-h night regime. Plates were overlaid with nylon mesh (Prosep, Zaventem, Belgium) of 20 μm pore size to avoid that roots grew into the medium. Depending on the experiment, 32 or 64 seeds were equally distributed on a 150-mm diameter plate. Mutant plants were grown together with their wild-type controls on the same plate.
as §1
Growth analysis was performed on the third true leaf harvested at different time points after transfer. After clearing with 70% ethanol, leaves were mounted in lactic acid on microscopic slides. For each experiment, 8-12 leaves were photographed with a binocular, and epidermal cells (40-300) were drawn for four representative leaves with a DMLB microscope (Leica) fitted with a drawing tubus and a differential interference contrast objective. Photographs of leaves and drawings were used to measure leaf and cell area, respectively, with ImageJ v1.41o (NIH; http://rsb.info.nih.gov/ij/), from which the cell numbers were calculated. The stomatal index was defined as the percentage of stomata per all cells. […]

[6] = transfer at 9 DAS to 25 mM mannitol or 5 μM ACC, leaf 3

With 1-aminocyclopropane-1-carboxylate [ACC] the “expression of mitotic cell cycle genes CDKB2;1 and CYCB1;1” value [1] was “no difference”, the CDKA activity reduced ([2]; ACC treatment, etr1.3 and ein5.1 mutants) was “not” and the CDKA activity ([2]; ACC treatment, wild-type and ein3.1) was “reduced”. The CDKA activity ([2]; wild type, 10 and 24 h after transfer to 25 mM mannitol or 5 μM ACC) was “decreased as early as 10 h after transfer”, the “number of mitotic cells (CYCB1;1:DBox-GUS activity)” value [3] was “no changes in the number of mitotic cells” and the endoreduplication onset [4] was “no changes in endoreduplication onset”. The “ACC-related decrease in leaf area” value ([5]; ein3.1 and eil1 mutants) was “comparable to that of the wild-type”, the “ACC-related decrease in leaf area” value ([5]; etr1.3, ein5.1, mkk9 and ein2.5 mutants, versus wild type) was “significantly less” and the cell proliferation rates [5, 6] was “rapid reduction of cell proliferation rates”. For the same substance, the stomatal index [5, 6] was “not affected”.

Reference: patent publication US20140130208A1, “METHODS AND MEANS TO PRODUCE ABIOTIC STRESS TOLERANT PLANTS” (VIB VZW, priority 2011, published 2014)
